# What was measured:
# [1] = biological target: T1, Lysine-specific demethylase 4A (Homo sapiens, UniProt O75164); assay: Inhibition of recombinant HQ5-Halo-tagged KDM4A tudor domain (unknown origin) measured by fluorescence polarization assay
# T1 sequence (O75164 whole entry): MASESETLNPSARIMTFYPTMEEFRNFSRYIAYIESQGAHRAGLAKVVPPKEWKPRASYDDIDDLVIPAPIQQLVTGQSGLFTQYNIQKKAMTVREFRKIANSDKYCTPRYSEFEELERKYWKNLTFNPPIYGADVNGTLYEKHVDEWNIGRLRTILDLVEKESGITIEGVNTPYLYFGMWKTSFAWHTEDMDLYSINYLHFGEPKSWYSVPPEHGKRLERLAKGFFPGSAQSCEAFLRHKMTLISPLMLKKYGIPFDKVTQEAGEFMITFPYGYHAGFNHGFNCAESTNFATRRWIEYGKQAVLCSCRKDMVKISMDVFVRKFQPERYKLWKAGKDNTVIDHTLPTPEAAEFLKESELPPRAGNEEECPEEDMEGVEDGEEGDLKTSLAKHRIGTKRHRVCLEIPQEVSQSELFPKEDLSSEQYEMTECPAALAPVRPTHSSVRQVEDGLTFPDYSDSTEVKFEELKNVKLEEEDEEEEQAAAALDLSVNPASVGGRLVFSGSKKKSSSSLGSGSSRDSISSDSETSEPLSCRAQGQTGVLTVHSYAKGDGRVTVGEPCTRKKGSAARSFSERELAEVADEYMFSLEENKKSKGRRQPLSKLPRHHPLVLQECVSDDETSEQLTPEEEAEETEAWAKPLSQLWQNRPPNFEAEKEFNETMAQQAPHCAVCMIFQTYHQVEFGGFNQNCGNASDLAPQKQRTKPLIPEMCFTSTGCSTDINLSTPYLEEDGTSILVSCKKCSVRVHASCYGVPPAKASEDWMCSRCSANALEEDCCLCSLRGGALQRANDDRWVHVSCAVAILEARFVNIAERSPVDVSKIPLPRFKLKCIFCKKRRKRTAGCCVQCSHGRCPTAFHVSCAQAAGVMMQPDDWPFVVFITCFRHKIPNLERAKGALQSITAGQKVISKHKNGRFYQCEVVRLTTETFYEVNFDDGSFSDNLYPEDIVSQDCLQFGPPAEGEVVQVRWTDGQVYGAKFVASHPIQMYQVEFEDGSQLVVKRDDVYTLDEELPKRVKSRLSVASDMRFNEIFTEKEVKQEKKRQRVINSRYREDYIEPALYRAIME
# [2] = biological target: T2, Lysine-specific demethylase 4C (Homo sapiens, UniProt Q9H3R0); assay: Inhibition of KDM4C (unknown origin) using H3K9me3 as substrate and measured by antibody-based assay
# T2 sequence (Q9H3R0 whole entry): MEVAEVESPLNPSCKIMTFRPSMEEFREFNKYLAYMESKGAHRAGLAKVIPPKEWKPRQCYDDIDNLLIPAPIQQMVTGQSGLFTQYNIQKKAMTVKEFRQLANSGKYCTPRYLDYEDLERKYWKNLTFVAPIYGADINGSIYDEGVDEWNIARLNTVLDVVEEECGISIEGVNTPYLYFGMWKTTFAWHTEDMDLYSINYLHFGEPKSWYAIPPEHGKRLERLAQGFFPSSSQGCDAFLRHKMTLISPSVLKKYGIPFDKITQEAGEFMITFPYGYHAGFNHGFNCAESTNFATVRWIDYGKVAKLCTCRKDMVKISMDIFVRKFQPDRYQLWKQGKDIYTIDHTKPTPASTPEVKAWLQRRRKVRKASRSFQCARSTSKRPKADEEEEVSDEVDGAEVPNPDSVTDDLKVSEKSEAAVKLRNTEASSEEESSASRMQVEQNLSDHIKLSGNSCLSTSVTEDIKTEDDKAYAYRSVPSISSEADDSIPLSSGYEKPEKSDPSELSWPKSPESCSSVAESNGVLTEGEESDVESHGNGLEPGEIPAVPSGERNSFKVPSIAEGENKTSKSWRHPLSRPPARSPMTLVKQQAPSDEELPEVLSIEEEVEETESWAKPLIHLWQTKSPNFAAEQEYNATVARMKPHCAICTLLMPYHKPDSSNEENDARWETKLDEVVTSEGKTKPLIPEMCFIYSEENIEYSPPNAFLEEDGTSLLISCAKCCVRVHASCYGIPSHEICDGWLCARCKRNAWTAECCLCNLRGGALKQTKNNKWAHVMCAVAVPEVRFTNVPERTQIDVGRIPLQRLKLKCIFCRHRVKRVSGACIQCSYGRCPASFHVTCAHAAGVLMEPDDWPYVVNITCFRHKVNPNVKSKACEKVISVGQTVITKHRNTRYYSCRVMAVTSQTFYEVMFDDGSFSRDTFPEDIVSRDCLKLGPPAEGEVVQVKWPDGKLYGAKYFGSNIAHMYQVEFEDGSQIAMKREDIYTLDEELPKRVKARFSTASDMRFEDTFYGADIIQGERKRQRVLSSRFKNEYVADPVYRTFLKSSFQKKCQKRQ
# DU-145 = assay: Antiproliferative activity against human DU-145 cells measured by Alamarblue assay; format: functional
# LNCaP = assay: Antiproliferative activity against human LNCaP cells measured by Alamarblue assay; format: functional
# [3] = Inhibition of KDM4 (unknown origin) measured by ESI-TOF MS assay; parameters: species or system Homo sapiens
# [4] = biological target: T1, Lysine-specific demethylase 4A; assay: Inhibition of human KDM4A (1 to 350 residues) measured by ELISA assay
# [5] = biological target: T3, Lysine-specific demethylase 4B (Homo sapiens, UniProt O94953); assay: Inhibition of KDM4B (unknown origin) measured by ELISA assay
# T3 sequence (O94953 whole entry): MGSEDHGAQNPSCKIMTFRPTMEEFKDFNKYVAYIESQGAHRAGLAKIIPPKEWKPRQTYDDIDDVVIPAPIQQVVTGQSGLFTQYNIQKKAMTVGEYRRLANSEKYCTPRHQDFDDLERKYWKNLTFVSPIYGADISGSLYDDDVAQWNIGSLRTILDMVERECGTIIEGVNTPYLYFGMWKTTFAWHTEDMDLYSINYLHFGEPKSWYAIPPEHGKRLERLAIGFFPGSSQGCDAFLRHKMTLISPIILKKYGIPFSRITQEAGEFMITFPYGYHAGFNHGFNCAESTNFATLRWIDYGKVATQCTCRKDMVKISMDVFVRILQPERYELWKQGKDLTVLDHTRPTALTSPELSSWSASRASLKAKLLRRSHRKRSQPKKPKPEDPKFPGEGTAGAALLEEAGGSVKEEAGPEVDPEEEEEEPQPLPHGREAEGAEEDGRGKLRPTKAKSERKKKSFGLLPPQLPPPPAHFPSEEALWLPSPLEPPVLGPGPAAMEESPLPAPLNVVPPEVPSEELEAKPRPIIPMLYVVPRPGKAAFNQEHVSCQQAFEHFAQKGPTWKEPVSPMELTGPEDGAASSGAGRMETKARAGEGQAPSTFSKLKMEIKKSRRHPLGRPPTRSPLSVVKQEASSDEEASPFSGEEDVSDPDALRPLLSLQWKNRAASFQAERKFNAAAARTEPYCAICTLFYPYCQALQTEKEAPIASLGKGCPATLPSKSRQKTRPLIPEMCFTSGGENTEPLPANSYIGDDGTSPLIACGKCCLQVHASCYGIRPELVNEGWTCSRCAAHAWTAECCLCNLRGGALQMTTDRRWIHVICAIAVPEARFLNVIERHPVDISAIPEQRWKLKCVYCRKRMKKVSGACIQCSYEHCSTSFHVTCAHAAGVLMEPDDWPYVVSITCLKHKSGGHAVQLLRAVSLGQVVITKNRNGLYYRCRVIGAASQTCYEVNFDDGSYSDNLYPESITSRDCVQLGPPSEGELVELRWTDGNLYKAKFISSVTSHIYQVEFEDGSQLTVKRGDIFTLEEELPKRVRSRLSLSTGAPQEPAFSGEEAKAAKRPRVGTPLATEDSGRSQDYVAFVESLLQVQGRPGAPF
# [6] = Inhibition of KDM4 in human KYSE-150 cells assessed as induction of H3K9me3 accumulation measured by immunostaining method; format: cell-based, KYSE-150 cell line
# [7] = Inhibition of KDM4 in human MCF7 cells assessed as induction of H3K9me3 accumulation measured by immunostaining method; format: cell-based
# KYSE-150 cell line = assay: Growth inhibition of human KYSE-150 cells measured after 48 hrs; format: functional
# [8] = Lipophilicity, logD of compound at pH 7.4 by Chromatography; format: physicochemical; conditions: buffer
# [9] = biological target: T3, Lysine-specific demethylase 4B; assay: Inhibition of KDM4B (unknown origin) using H3K9me3 as substrate and measured by LANCE TR-FRET assay
# [10] = biological target: T4, Lysine-specific demethylase 4D (Homo sapiens, UniProt Q6B0I6); assay: Inhibition of KDM4D (unknown origin) using H3K9me3 as substrate and measured by LANCE TR-FRET assay
# T4 sequence (Q6B0I6 whole entry): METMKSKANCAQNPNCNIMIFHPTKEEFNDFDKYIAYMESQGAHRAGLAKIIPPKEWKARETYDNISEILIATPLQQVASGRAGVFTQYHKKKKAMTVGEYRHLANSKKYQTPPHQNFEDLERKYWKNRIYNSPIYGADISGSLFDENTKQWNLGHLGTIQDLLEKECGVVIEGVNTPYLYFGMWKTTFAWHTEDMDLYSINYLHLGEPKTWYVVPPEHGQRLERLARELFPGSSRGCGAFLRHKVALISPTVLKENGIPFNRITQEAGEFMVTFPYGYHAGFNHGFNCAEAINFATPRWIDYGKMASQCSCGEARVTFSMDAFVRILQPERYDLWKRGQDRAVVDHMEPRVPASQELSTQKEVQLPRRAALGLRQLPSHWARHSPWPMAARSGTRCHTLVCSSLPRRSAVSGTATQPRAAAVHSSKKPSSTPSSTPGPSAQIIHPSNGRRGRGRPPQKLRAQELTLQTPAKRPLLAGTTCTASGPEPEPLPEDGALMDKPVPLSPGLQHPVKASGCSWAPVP
# [11] = biological target: T1, Lysine-specific demethylase 4A; assay: Inhibition of KDM4A (unknown origin) using H3K9me3 as substrate and measured by LANCE TR-FRET assay
# [12] = biological target: T2, Lysine-specific demethylase 4C; assay: Inhibition of KDM4C (unknown origin) using H3K9me3 as substrate and measured by LANCE TR-FRET assay
# [13] = biological target: T2, Lysine-specific demethylase 4C; assay: Inhibition of N-terminal GST-tagged human KDM4C (2 to 372 residues) expressed in baculovirus-infected Sf9 cells measured by high-throughput mass spectrometry assay
# [14] = biological target: T4, Lysine-specific demethylase 4D; assay: Inhibition of KDM4D (unknown origin) measured by AlphaLisa-based screening assay
# [15] = biological target: T1, Lysine-specific demethylase 4A; assay: Inhibition of KDM4A (unknown origin) measured by AlphaLisa-based screening assay
# [16] = biological target: T3, Lysine-specific demethylase 4B; assay: Inhibition of GST-tagged KDM4B (unknown origin) using H3K9(me3)-biotin peptide as substrate incubated for 30 mins and measured after 15 mins by TR-FRET assay
# [17] = Antiproliferative activity against human neuroblastoma cells after 3 days by PrestoBlue assay; format: functional, cell-based; conditions: Neuroblastoma cell, 72 h
# [18] = biological target: T5, Lysine-specific demethylase 4E (Homo sapiens, UniProt B2RXH2)
# T5 sequence (B2RXH2 whole entry): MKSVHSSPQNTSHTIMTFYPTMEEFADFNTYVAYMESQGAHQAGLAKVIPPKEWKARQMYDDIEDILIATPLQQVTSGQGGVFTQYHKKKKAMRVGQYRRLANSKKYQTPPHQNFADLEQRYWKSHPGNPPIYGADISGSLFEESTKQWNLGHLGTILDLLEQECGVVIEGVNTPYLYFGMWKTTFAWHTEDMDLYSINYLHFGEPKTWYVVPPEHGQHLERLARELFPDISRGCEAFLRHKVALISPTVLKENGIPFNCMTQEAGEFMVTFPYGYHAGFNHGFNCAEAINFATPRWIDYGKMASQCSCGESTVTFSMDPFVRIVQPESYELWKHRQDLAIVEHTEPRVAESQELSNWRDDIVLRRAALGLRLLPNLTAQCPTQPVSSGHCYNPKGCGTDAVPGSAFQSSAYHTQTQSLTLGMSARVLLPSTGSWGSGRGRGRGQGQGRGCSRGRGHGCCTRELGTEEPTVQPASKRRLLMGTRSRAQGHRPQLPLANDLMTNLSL
structure (smiles),measurement,setting,value
CCCCc1oc2ccccc2c1C(=O)c1cc(I)c(OCCN)c(I)c1,IC50,[1],26 µM
CC(C)C(=O)NC(c1ccco1)c1ccc2cccnc2c1O (stereo not drawn),IC50,[2],30 µM
Cc1nn(-c2nc3ccccc3[nH]2)c(O)c1-c1ccccc1,GI50,DU-145,8 µM
same,GI50,LNCaP,8 µM
O=C(O)/C=C/C(=O)N(O)CCCCNCc1ccc(COC(=O)Nc2cccc3ccccc23)cc1,IC50,[3],4.3 µM
Clc1ccc(N/N=C(\c2ccccc2)c2ccccn2)nc1,IC50,[4],290 nM
same,IC50,[5],290 nM
COC(=O)/C=C/C(=O)N(O)CCCCNCc1ccc(COC(=O)Nc2cccc3ccccc23)cc1,EC50,[6],8.6 µM
same,EC50,[7],6.3 µM
same,GI50,KYSE-150 cell line,5.1 µM
O=c1[nH]c(Oc2cnn(Cc3ccccc3)c2)nc2cnccc12,chromatographic logD,[8],1.8
O=C(O)c1ccncc1NCc1ccco1,chromatographic logD,[8],0.1
CN(c1ccccc1)c1ccc2c(c1)CCC[C@H]2CNc1cnccc1C(=O)O,IC50,[9],35 nM
same,IC50,[10],35 nM
same,IC50,[11],35 nM
CCCCc1oc2ccccc2c1C(=O)c1cc(I)c(OCC[N+](C)(C)C)c(I)c1,IC50,[1],26 µM
CNc1cnccc1C(=O)O,IC50,[12],1400 nM
O=C(O)c1ccnc(-c2ccc[nH]2)c1,Ki,[13],31 nM
CC(C)(C)OC(=O)C[C@@H]1CCN(C(c2ccc(-c3ccncc3)cc2)c2cc3c(cc2O)OCO3)C1 (stereo partly drawn),IC50,[14],23 nM
same,IC50,[15],> 100 µM
Cc1cc(C2CCCCC2)n(O)c(=O)c1 [CICLOPIROX],IC50,[16],3.8 µM
same,IC50,[17],200 nM
CC(/C=C/C(=O)NO)=C\[C@@H](C)C(=O)c1ccc(N(C)C)cc1 [TRICHOSTATIN],IC50,[18],28.4 µM

# Reference: ChEMBL document CHEMBL5137065, “Recent Advances with KDM4 Inhibitors and Potential Applications” (J Med Chem, 2022)
